Source: patent US20220380801A1, “TRIPARTITE SYSTEMS FOR PROTEIN DIMERIZATION AND METHODS OF USE” (priority 2019, published 2022)
Read-outs that look alike come from different tables or passages of the source.

Assays:
Assay in all cases: Biacore 8K simeprevir titration of heterodimerisation
Assay type in all cases: binding
[1] = biological target: HCV NS3/4A PR (S139A)/PRSIM_23 (Hepatitis C virus subtype 1a, UniProt A8DG50, A1066T/I1043Q/I1044E/L1039E/L1040E/L1047Q/S1165A, form not given); details: read-out: EC50 of simeprevir for induction of heterodimerisation, 40 nM ‘WT’ (S139A) protease, immobilised PRSIM_23
Method: (§1) The effect of simeprevir concentration on the formation of the HCV NS3/4A PR (S139A)/PRSIM binding molecule complex was also measured using the Biacore 8K. PRSIM_57 and PRSIM_23 were covalently immobilised on a CM5 chip surface, as before. Simeprevir was diluted 1:2 (0.0152-300 nM) in 10 mM Hepes pH 7.4, 150 mM NaCl, 0.05% Surfactant P20, 0.3% DMSO at a constant 40 nM HCV NS3/4A PR (S139A) concentration. The samples were flowed over the chip at 50 μl/min using multi cycle kinetics, with 240 sec association and 600 sec dissociation. Regeneration conditions were as described above. Titration curves for the induction of HCV NS3/4A PR (S139A)/PRSIM dimerization by simeprevir were generated. The response for each simeprevir concentration at 225 sec (15 sec before the end of the association) was normalized as a percentage of the response for 300 nM Simeprevir at 225 sec and plotted against the Simeprevir concentration. Each data point represents the mean of 3 independent experiments±s.e.m. The EC50 reported was calculated using nonlinear regression curve fit. The same method was used for the mutant HCV NS3/4A proteases, except simeprevir was diluted 1:2 (0.0457-900 or 0.412-8,100 nM) in 10 mM Hepes pH 7.4, 150 mM NaCl, 0.05% Surfactant P20, 0.82% DMSO at a constant 40 nM HCV NS3/4A PR (S139A) concentration and the response for each simeprevir concentration was normalized against the highest simeprevir concentration.

[2] = biological target: HCV NS3/4A PR (S139A)/PRSIM_57 (Hepatitis C virus subtype 1a, UniProt A8DG50, A1066T/I1043Q/I1044E/L1039E/L1040E/L1047Q/S1165A, form not given); details: read-out: EC50 of simeprevir for induction of heterodimerisation; 40 nM HCV NS3/4A PR (S139A), immobilised PRSIM_57
Method: as §1

[3] = biological target: HCV NS3/4A PR D168E/PRSIM_23 (Hepatitis C virus subtype 1a, UniProt A8DG50, D1194E/S1165A, form not given); details: read-out: EC50 of simeprevir for induction of heterodimerisation; D168E protease, immobilised PRSIM_23
Method: as §1

[4] = biological target: HCV NS3/4A PR K136D/PRSIM_23 (Hepatitis C virus subtype 1a, UniProt A8DG50, K1162D/S1165A, form not given)
Method: as §1

For `COc1ccc2c(O[C@@H]3C[C@H]4C(=O)N[C@]5(C(=O)NS(=O)(=O)C6CC6)C[C@H]5/C=C\CCCCN(C)C(=O)[C@@H]4C3)cc(-c3nc(C(C)C)cs3)nc2c1C` [simeprevir], the EC50 [1] was 4.53 nM, the EC50 ([1]; listed as Simeprevir) was 4.03 nM and the EC50 [2] was 4.57 nM. For the same compound, the EC50 [3] was 3.69 nM, the “EC50 higher than for the wt complex” value ([4]; K136D versus wt complex) was roughly 30 fold and the EC50 ([4]; read-out: EC50 of simeprevir for induction of heterodimerisation, K136D protease, immobilised PRSIM_23) was 132 nM.
